# What was measured:
# MCF-7 cells = experiment: CCK-8 cell viability assay, MCF-7; format: cell-based; conditions: MCF-7 human breast cancer cells, CCK-8, 24 h, mean ± SEM, n = 3
# Method: (§1) Human colorectal adenocarcinoma cells (HT-29, ATCC® HTB-38), adenocarcinomic human alveolar basal epithelial cells (A549, ATCC® CCL-185), and prostate cancer (PC-3, ATCC® CRL-1435) were cultured in the growth medium, containing Roswell Park Memorial Institute Medium (RPMI1640) WelGENE, Daegu, Korea supplemented with 10% (v/v) fetal bovine serum (FBS, Gibco, Grand Island, NY, USA) and 1% antibiotics-antimycotics (Gibco). Human breast adenocarcinoma cells (MCF-7, ATCC® HTB-22™), hepatocellular carcinoma (HepG2, ATCC® HB-8065™), Rattus brain glioma (C6, ATCC ® CRL-2303™), and human renal carcinoma (Caki-2, ATCC® HTB-47™) cells were cultured in Dulbecco’s modified Eagle’s medium (DMEM, WelGENE, Daegu, Korea) supplemented with 10% (v/v) FBS (Gibco) and 1% antibiotics-antimycotics (Gibco). Mouse brain neural (NE-4C, ATCC® CRL-2925™) and human cervix adenocarcinoma cells (HeLa, ATCC® CCL-2™) were cultured in Eagle’s minimum essential medium (EMEM, ATCC® 30-2003™) supplemented with 10% FBS (Gibco) and 1% antibiotics-antimycotics (Gibco). Mouse liver normal cells (AML12, ATCC® CRL-2254™) were cultured in DMEM/F-12 (WelGENE) supplemented with 10% FBS (Gibco), 1 × ITS (10 μg/mL insulin, 5.5 μg/mL transferrin, 6.7 ng/mL selenium, Gibco), […] 1% antibiotics-antimycotics (Gibco). Human breast epithelial cells (MCF 10A, ATCC® CRL-10317™) were cultured in DMEM/F-12 (WelGENE) supplemented with 5% horse serum (Gibco), 20 ng/mL epidermal growth factor (EGF, Peprotech Inc., Rocky Hill, NJ, USA), […] (Sigma-Aldrich, St. Louis, MO, USA), 100 ng/mL colera toxin (Sigma-Aldrich), 10 μg/mL insulin (Sigma-Aldrich) and 1% antibiotics- (Gibco). Human colon normal epithelial cells (FHC, ATCC® CRL-18317™) were cultured in DMEM/F-12 (WelGENE) supplemented with 10% FBS (Gibco), 10 ng/mL cholera toxin (Sigma-Aldrich), 20 ng/mL EGF (Peprotech Inc.), 100 μg/mL hydrocortisone (Sigma-Aldrich), 1 × ITS (10 μg/mL insulin, 5.5 μg/mL transferrin, 6.7 ng/mL selenium, Gibco) and 1% antibiotics-antimycotics (with 100 units penicillin, 100 μg streptomycin and 250 ng amphotericin B per mL, Gibco). Cells were incubated in a humidified 5% CO2 atmosphere at 37 °C.
# (§2) To evaluate cytotoxicity, cells were seeded in a 96-well plate (FHC, 0.5 × 10^4 cells/well; Caki-2 and MCF 10A, 1 × 10^4 cells/well; AML12, 1.2 × 10^4 cells/well; HeLa, HEK-293, A549, and PC-3, 1.5 × 10^4 cells/well; HT-29, MCF-7, C6, HepG2, and NE-4C, 2 × 10^4 cells/well). […] In addition, cell counting kit-8 (CCK-8, Dojindo Laboratories, Kumamoto, Japan) solution was added to each well, and the plate was incubated for 2 h. The absorbance was then measured at 450 nm using a microplate reader (SpectraMax i3, Molecular Devices, San Jose, CA, USA). The IC50 and logIC50 values were calculated in GraphPad Prism (GraphPad Prism Software Inc. Version 5.02, San Diego, CA, USA). All experiments were performed, independently, three times. The graph of logIC50 values represents the average value.
# HepG2 cells = experiment: CCK-8 cell viability assay, HepG2; format: cell-based; conditions: HepG2 human hepatic carcinoma cells, CCK-8, 24 h, mean ± SEM, n = 3
# Method: as §1, §2
# HT-29 cells = experiment: CCK-8 cell viability assay, HT-29; format: cell-based; conditions: HT-29 human colon cancer cells, CCK-8, 24 h, mean ± SEM, n = 3
# Method: as §1, §2
# MCF-10A cells = experiment: CCK-8 cell viability assay, MCF-10A normal cells; format: cell-based; conditions: MCF-10A normal human breast epithelial cells, CCK-8, 24 h, mean ± SEM, n = 3
# Method: as §1, §2
# AML12 cells = experiment: CCK-8 cell viability assay, AML12 normal cells; format: cell-based; conditions: AML12 normal mouse liver hepatocyte cells, CCK-8, 24 h, mean ± SEM, n = 3
# Method: as §1, §2
# HeLa cells = experiment: CCK-8 cell viability assay, HeLa; format: cell-based; conditions: HeLa human cervical cancer cells, CCK-8, 24 h, mean ± SEM, n = 3
# Method: as §1, §2
# HEK-293 cells = experiment: CCK-8 cell viability assay, HEK-293 normal cells; format: cell-based; conditions: HEK-293 human embryonic kidney cells, CCK-8, 24 h, mean ± SEM, n = 3
# Method: as §2
# Caki-2 cells = experiment: CCK-8 cell viability assay, Caki-2; format: cell-based; conditions: Caki-2 human renal cancer cells, CCK-8, 24 h, mean ± SEM, n = 3
# Method: as §1, §2
# FHC cells = experiment: CCK-8 cell viability assay, FHC normal cells; format: cell-based; conditions: FHC normal human colon epithelial cells, CCK-8, 24 h, mean ± SEM, n = 3
# Method: as §1, §2
# C6 cells = experiment: CCK-8 cell viability assay, C6; format: cell-based, Rattus; conditions: C6 brain glioma cells, CCK-8, 24 h, mean ± SEM, n = 3
# Method: as §1, §2
# NE-4C cells = experiment: CCK-8 cell viability assay, NE-4C normal cells; format: cell-based; conditions: NE-4C mouse brain neural stem cells, CCK-8, 24 h, mean ± SEM, n = 3
# Method: as §1, §2
# A549 cells = experiment: CCK-8 cell viability assay, A549; format: cell-based; conditions: A549 human lung cancer cells, CCK-8, 24 h, mean ± SEM, n = 3
# Method: as §1, §2
# PC-3 cells = experiment: CCK-8 cell viability assay, PC-3; format: cell-based; conditions: PC-3 human prostate cancer cells, CCK-8, 24 h, mean ± SEM, n = 3
# Method: as §1, §2
# [1] = Solubility in water / aqueous media; format: physicochemical
# [2] = Stability in buffered aqueous solution by UV-Vis spectroscopy; format: physicochemical
# Method: An indispensable feature of any promising anticancer agent is its thermodynamic stability in aqueous media. All prospective agents should be able to reach their target under the conditions encountered in living organisms. Therefore, the stability of the compounds was measured at 1 mM in phosphate-buffered saline (PBS) solution using UV–Vis spectroscopy. […] The stability of the metal complexes is often dependent on the pH value and the pH 4.5–5.0 is crucial since endosomal uptake of the complexes by lysosomes can occur.
Compound,IC50 (MCF-7 cells) [µM],IC50 (HepG2 cells) [µM],IC50 (HT-29 cells) [µM],IC50 (MCF-10A cells) [µM],IC50 (AML12 cells) [µM],IC50 (HeLa cells) [µM],IC50 (HEK-293 cells) [µM],IC50 (Caki-2 cells) [µM],IC50 (FHC cells) [µM],IC50 (C6 cells) [µM],IC50 (NE-4C cells) [µM],IC50 (A549 cells) [µM],IC50 (PC-3 cells) [µM],IC50 (MCF-7 cells; MCF7) [µM],IC50 (HEK-293 cells; HEK293) [µM],IC50 (C6 cells; Rattus norvegicus) [µM],IC50 (NE-4C cells; Neural stem cell) [µM],other results
O=C(Nc1ccc(-c2nc3ccccc3s2)cc1)C1CNC2=[N+]1[Pt-2]([Cl])([Cl])[n+]1ccccc12 (centres unmarked) [Compound L3Pt],> 500,> 500,> 500,> 500,> 500,> 500,206 ± 7.4,> 500,> 500,> 500,32.4 ± 6,> 500,> 500,,,,,
"O=C(Nc1ccc(-c2nc3ccccc3s2)cc1)C(C/N=C/c1ccccc1O)/N=C/c1ccccc1O (centres unmarked) [Compound L2, N-(4-Benzothiazol-2-yl-phenyl)-2,3-bis-[(2-hydroxy-benzylidene)amino] propionamide]",,14.2 ± 7,135 ± 4.4,79.3 ± 25.4,> 500,47 ± 6,,159 ± 4.3,189 ± 10.3,,,182.4 ± 0.8,116 ± 5,98.1 ± 7.9,139 ± 20.1,143 ± 32.7,28.2 ± 0.1,
"NCC(N)C(=O)Nc1ccc(-c2nc3ccccc3s2)cc1 (centres unmarked) [Compound L1, 2,3-Diamino-N-(4-benzothiazol-2-yl-phenyl)-propionamide]",,5.9 ± 0.5,29.9 ± 0.3,65.1 ± 1.9,138 ± 24.1,41.9 ± 3.4,,75.6 ± 3.4,72.7 ± 2,,,100 ± 8.4,94.9 ± 0.8,65.9 ± 12.3,68.1 ± 2.8,77.8 ± 9.7,36.8 ± 3.7,"Solubility in water / aqueous media [1]: soluble in water; Stability, time-dependent UV-Vis spectrum ([2]; 1 mM in PBS (L1Pt: 2% DMSO in PBS), physiological pH 7.4, t = 0, 7, 24 h, 200-450 nm): did not display any significant changes throughout 24 h; Stability, time-dependent UV-Vis spectrum at other pH-values ([2]; 1 mM in PBS, acidic (pH 2), weakly acidic (pH 5), alkaline (pH 12), t = 0, 7, 24 h): no obvious changes in the absorptions peak"
"N.N.[Cl][Pt][Cl] [Cisplatin, cis-diamminedichloroplatinum-(II), reference compound]",204 ± 27.3,54.2 ± 31.8,39.1 ± 0.6,95.9 ± 6.7,32.1 ± 4.4,26.2 ± 5.6,65.5 ± 4.1,> 500,> 500,227 ± 34.3,9 ± 0.3,> 500,> 500,,,,,IC50 (AML12 cells; listed as cisplatin): 32 µM
O=C(Nc1ccc(-c2nc3ccccc3s2)cc1)C1C[N+]2=Cc3ccccc3[O][Pt-2]23[O]c2ccccc2C=[N+]13 (centres unmarked) [Compound L2Pt],> 500,31.6 ± 3.6,173 ± 3.2,> 500,> 500,221 ± 15.8,212 ± 14.9,> 500,> 500,> 500,47 ± 4.1,> 500,> 500,,,,,
"Nc1ccc(-c2nc3ccccc3s2)cc1 [BTA, 2-(4-aminophenyl)-benzothiazole, reference compound]",,52 ± 5.7,275 ± 5,401 ± 136,> 500,76.4 ± 23.4,,463 ± 44.1,> 500,,,> 500,182 ± 7.8,104 ± 28.6,> 500,425 ± 47.7,60.9 ± 2.9,
"O=C(Nc1ccc(-c2nc3ccccc3s2)cc1)C1CNC(c2ccccn2)=N1 (centres unmarked) [Compound L3, 2-Pyridin-2-yl-4,5-dihydro-1H-imidazole-4-carboxylic acid (4-benzothiazol-2-yl-phenyl)amide]",,> 500,70.5 ± 0.2,> 500,> 500,98.9 ± 3.5,,> 500,> 500,,,> 500,130 ± 34.7,190 ± 16.5,> 500,142 ± 15.3,22.4 ± 2.4,

# — article PMC8399196, “Synthesis, Characterization, and Anticancer Activity of Benzothiazole Aniline Derivatives and Their Platinum (II) Complexes as New Chemotherapy Agents” (Pharmaceuticals, 2021)
